In US6821980B1, “Substituted 5-benzyl-2,4-diaminopyrimidines” (Basilea Pharmaceutica AG, priority 1999, dated 2004):
≈ marks a conversion by molar mass, not a printed value. Read-outs that look alike come from different tables or passages of the source.

Tests used:
[1] = target: purified DHFR of strain 157/4696 of Staphylococcus aureus (Staphylococcus aureus, UniProt P13955); assay: biochemical
[2] = tested on: Staphylococcus aureus 101; assay: MIC against Staphylococcus aureus 101; format: cell-based; conditions: Table 2; Staphylococcus aureus 101, MRSA- and trimethoprim-resistant; clinical isolate; read-out: MIC Sa101
[3] = tested on: Streptococcus pneumoniae 1/1; assay: MIC against Streptococcus pneumoniae 1/1; format: cell-based
[4] = target: T1, purified DHFR of strain Sp1/1 of Streptococcus pneumoniae (Streptococcus pneumoniae serotype 4, UniProt Q54801); format: biochemical; conditions: Table 2; IC50 against purified DHFR of strain Sp1/1
T1 sequence (Q54801 1-168 I100L): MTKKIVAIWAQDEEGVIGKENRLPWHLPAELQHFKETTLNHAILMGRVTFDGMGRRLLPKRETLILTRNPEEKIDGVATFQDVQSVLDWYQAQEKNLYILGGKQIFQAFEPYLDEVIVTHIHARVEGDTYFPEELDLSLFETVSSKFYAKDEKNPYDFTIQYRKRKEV

[5] = Table 2, Streptococcus pneumoniae 1/1, trimethoprim- and penicillin-resistant, serotype 6, clinical isolate, read-out: MIC Sp1/1

Sequence of purified DHFR of strain 157/4696 of Staphylococcus aureus (P13955 whole entry): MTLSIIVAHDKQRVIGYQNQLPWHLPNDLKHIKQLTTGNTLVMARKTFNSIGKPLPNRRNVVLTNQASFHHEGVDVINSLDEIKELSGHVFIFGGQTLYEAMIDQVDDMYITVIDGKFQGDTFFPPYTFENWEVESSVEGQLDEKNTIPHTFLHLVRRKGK

Compound	IC50 [1] [µM]	MIC [2] [µg/mL]	MIC [3, 5] [µg/mL]	IC50 [4] [µM]	MIC ([3]; Streptococcus pneumoniae, 1/1, read-out: MIC Sp1/1) [µg/mL]
CCOc1cc(Cc2cnc(N)nc2N)cc(OCC)c1-c1ccc(F)c(N)c1 [Example 04-n, 5-(3′-Amino-2,6-diethozy-4′-fluoro-biphenyl-4-ylmethyl)-pyrimidine-2,4-diamine]	1.4	8 (≈ 20.1 µM)	2 (≈ 5.03 µM)	0.068	–
CCOc1cc(Cc2cnc(N)nc2N)cc(OCC)c1-c1ccc(S(N)(=O)=O)cc1 [Example 04-o, 4′-(2,4-Diamino-gyrimidin-5-ylmethyl)-2′,6′-diethoxy-biphenyl-4-sulphonic acid amide]	1.3	8 (≈ 18 µM)	8 (≈ 18 µM)	0.06	–
CCOc1cc(Cc2cnc(N)nc2N)cc(OCC)c1-c1ccc(N)nc1 [Example 04-q, 5-[4-(6-Amino-pyridin-3-yl)-3,5-diethoxy-benzyl]-pyrimidine-2,4-diamine]	1.9	8 (≈ 21 µM)	4 (≈ 10.5 µM)	0.069	–
CCOc1cc(Cc2cnc(N)nc2N)cc(OCC)c1-c1ccc(N)c(F)c1 [Example 04-r, 5-(4′-Amino-2,6-diethoxy-3′-fluoro-biphenyl-4-3dmethyl)-Ryrimidine-2,4-diamine]	3.2	8 (≈ 20.1 µM)	4 (≈ 10.1 µM)	0.085	–
CCOc1cc(Cc2cnc(N)nc2N)cc(OCC)c1-c1cc(N)cc(F)c1 [Example 04-t, 5-(5′-Amino-2,6-diethoxy-3′-fluoro-biphenyl-4-ylmethyl)-pyrimidine-2,4-diamine]	1.2	8 (≈ 20.1 µM)	2 (≈ 5.03 µM)	0.031	–
CCOc1cc(Cc2cnc(N)nc2N)cc(OCC)c1-c1cccc(C=O)c1 [Example 04-u, 4′-(2,4-Diamino-pyrimidin-5-ylmethyl)-2′,6′-diethoxy-biphenyl-3-carbaldehyde]	1.9	8 (≈ 20.4 µM)	4 (≈ 10.2 µM)	0.065	–
CCOc1cc(Cc2cnc(N)nc2N)cc(OCC)c1-c1ccc(CNCC(F)(F)F)cc1 [Example 04-v, 5-[2,6-Diethoxy-4′-[(2,2,2-trifluoroethylamino)-methyl]-biphenyl-4-ylmethyl]-pyrimidine-2,4-diamine]	1.3	8 (≈ 16.8 µM)	4 (≈ 8.41 µM)	0.15	–
CCOc1cc(Cc2cnc(N)nc2N)cc(OCC)c1-c1ccc(CN2CCC(=O)N2)cc1 [Example 04-w, 1-[4′-(2,4-Diamino-pyrimidin-5-lmethyl)-2′,6′-diethoxy-biphenyl-4-ylmethyl]-pyrazolidin-3-one]	1.2	8 (≈ 17.3 µM)	8 (≈ 17.3 µM)	0.082	–
CCOc1cc(Cc2cnc(N)nc2N)cc(OCC)c1-c1cnc(CN2CCOCC2)nc1 [Example 04-x, 5-[3,5-Diethoxy-4-(2-morpholin-4-ylmethyl-pyrimidin-5-yl)-benzyl]-pyrimidine-2,4-diamine]	7.9	8 (≈ 17.2 µM)	8 (≈ 17.2 µM)	0.08	–
CCOc1cc(Cc2cnc(N)nc2N)cc(OCC)c1-c1ccc(CN2CCCC2)cc1 [Example 04-y, 5-(2,6-Diethoxy-4′-pyrrolidin-1-ylmethyl-biphenyl-4-ylmethyl)-pyrimidine-2,4-diamine]	0.89	8 (≈ 17.9 µM)	8 (≈ 17.9 µM)	0.092	–
CCOc1cc(Cc2cnc(N)nc2N)cc(OCC)c1-c1ccc(CN2CCOCC2)c(F)c1 [Example 04-z]	3.8	8 (≈ 16.6 µM)	4 (≈ 8.31 µM)	0.058	–
CCOc1cc(Cc2cnc(N)nc2N)cc(OCC)c1-c1cccc(OC)c1 [Example 05-a, 5-(2,6-Diethoxy-3′-methoxy-biphenyl-4-ylmethyl)-pyrimidine-2,4-diamine]	6.1	8 (≈ 20.3 µM)	2 (≈ 5.07 µM)	0.046	–
CCOc1cc(Cc2cnc(N)nc2N)cc(OCC)c1-c1ccc(OC)cc1 [Example 05-b, 5-(2,6-Diethoxy-4′-methoxy-biphenyl-4-ylmethyl)-pyrimidine-2,4-diamine]	1.5	16 (≈ 40.6 µM)	4 (≈ 10.1 µM)	0.04	–
CCOc1cc(Cc2cnc(N)nc2N)cc(OCC)c1-c1cccc(NC(C)=O)c1 [Example 05-c, N-[4′-(2,4-Diamino-pyrimidin-5-ylmethyl)-2′,6′-diethoxy-biphenyl-3-yl]-acetamide]	2.6	8 (≈ 19 µM)	4 (≈ 9.49 µM)	0.03	–
CCOc1cc(Cc2cnc(N)nc2N)cc(OCC)c1-c1cccc(O)c1 [Example 05-d, 4′-(2,4-Diamino-pyrimidin-5-ylmethyl)-2′,6′-diethoxy-biphenyl-3-ol]	3.1	4 (≈ 10.5 µM)	2 (≈ 5.26 µM)	0.07	–
CCOc1cc(Cc2cnc(N)nc2N)cc(OCC2(CC#N)CC2)c1-c1cccc(N)c1 [Example 07-b, {1-[3′-Amino-4-(2,4-diamino-pyrimidin-5-ylmethyl)-6-ethoxy-biphenyl-2-yloxymethyl]-cydopropyl}-acetonitrile]	0.95	8 (≈ 18 µM)	2 (≈ 4.5 µM)	0.036	–
CCOc1cc(Cc2cnc(N)nc2N)cc(OCC2(COC)CC2)c1-c1cccc(N)c1 [Example 07-c, 5-[3′-Amino-6-ethoxg-2-[(1-methoxymethyl-cyclopropyl)-methoxy]-biphenyl-4-yimethyl]-pyrimidine-2,4-diamine]	2.2	8 (≈ 17.8 µM)	4 (≈ 8.9 µM)	0.048	–
CCOc1cc(Cc2cnc(N)nc2N)cc(OC2CCCC2)c1-c1cccc(N)c1 [Example 07-d, 5-(3′-Amino-6-cycloventloxy-2-ethoxy-biphenyl-4-ylmethyl)-pyrimidine-2,4-diamine]	0.68	4 (≈ 9.53 µM)	1 (≈ 2.38 µM)	0.0082	–
CCOc1cc(Cc2cnc(N)nc2N)cc(OC2CCC2)c1-c1cccc(N)c1 [Example 07-e, 5-(3′-Amino-6-qdobutoxy-2-ethoxy-biphenyl-4-ylmethyl)-pyrimidine-2,4-diamine]	0.64	4 (≈ 9.86 µM)	1 (≈ 2.47 µM)	0.028	–
CCOc1cc(Cc2cnc(N)nc2N)cc(OCC(C)(C)C=CC#N)c1-c1cccc(N)c1 [Example 07-f, (E)-5-[3′-Amino-4-(2,4-diamino-pyrimidin-5-ylmeth)-6-ethoxy-biphenyl-2-yloxy]-4,4-dimethyl-pent-2-ene-nitrile]	0.75	8 (≈ 17.4 µM)	–	0.055	2 (≈ 4.36 µM)
CCOc1cc(Cc2cnc(N)nc2N)cc(OCCc2ccccn2)c1-c1cccc(N)c1 [Example 07-g, 5-[3′-Amino-6-ethoxy-2-(2-pyridin-2-yl-ethoxy)-biphenyl-4-ylmethyl]-pyrimidine-2,4-diamine]	0.65	8 (≈ 17.5 µM)	8 (≈ 17.5 µM)	0.03	–
CCOc1cc(Cc2cnc(N)nc2N)cc(OCC(F)(F)F)c1-c1cccc(N)c1 [Example 07-i, 5-[3′-Amino-6-ethoxy-2-(2,2,2-trifluoro-ethoxy)-biphenyl-4-ylmethyl]-pyrimidine-2,4-diamine]	0.9	4 (≈ 9.23 µM)	4 (≈ 9.23 µM)	0.028	–
CCOc1cc(Cc2cnc(N)nc2N)cc(OCCC2CCOCC2)c1-c1cccc(N)c1 [Example 07-j, 5-{3′-Amino-2-ethoxy-6-[2-(tetrahydro-pyran-4-yl)-ethoxy]-biphenyl-4-ylmethyl}-pyrimidine-2,4-diamine]	1.3	8 (≈ 17.3 µM)	1 (≈ 2.16 µM)	0.029	–
